Measured values taken from patent US20240279214A1, “ALPHA4 BETA7 INEGRIN ANTAGONISTS AND USES THEREOF” (XinThera, Inc., priority 2022, published 2024).
Like-named read-outs stand apart in the source and are kept apart here.

Settings: ether bond, 13-membered ring, 100.0 °C

Compound: CCOC(=O)C[C@H](NC(=O)C(c1cc(Br)cc(Cl)c1F)n1cc(CCN2CC(F)C2)c(C(F)(F)F)cc1=O)c1cc(-c2c(C)cccc2O)cc(C)c1F (stereo partly shown)
- ring closure, isolated yield (the molecule shown is the open-chain precursor, CuI/(1R,2R)-N1,N2-dimethylcyclohexane-1,2-diamine/K2CO3, dioxane, 46.7 mM): 46.1%

Compound: CCOC(=O)C[C@H](NC(=O)C(c1cc(Br)ccc1F)n1ccc(C(F)(F)F)c(Cl)c1=O)c1cc(-c2c(C)cccc2O)cc(C)c1F (stereo partly shown)
- ring closure, isolated yield (the molecule shown is the open-chain precursor, CuI/K2CO3/(1R,2R)-N1,N2-dimethylcyclohexane-1,2-diamine, 1,4-dioxane, 43.3 mM): 56.1%

Compound: CCOC(=O)C[C@@H]1NC(=O)C(n2cc(CCCN(C)C)c(C(F)(F)F)cc2=O)c2cc(ccc2F)Oc2cccc(C)c2-c2cc(C)c(F)c1c2 (stereo in doubt)
- ring closure, isolated yield (from CCOC(=O)C[C@H](NC(=O)C(c1cc(Br)ccc1F)n1cc(CCCN(C)C)c(C(F)(F)F)cc1=O)c1cc(-c2c(C)cccc2O)cc(C)c1F, CuI/K2CO3/(1R,2R)-N1,N2-dimethylcyclohexane-1,2-diamine, 1,4-dioxane, 62.0 mM, 16.0 h): 55.6%

Compound: CCOC(=O)C[C@@H]1NC(=O)C(n2cc(CCN(C)C)c(C(F)(F)F)cc2=O)c2cc(ccc2F)Oc2cccc(C)c2-c2cc(C)c(F)c1c2 (stereo in doubt)
- ring closure, isolated yield (from CCOC(=O)C[C@H](NC(=O)C(c1cc(Br)ccc1F)n1cc(CCN(C)C)c(C(F)(F)F)cc1=O)c1cc(-c2c(C)cccc2O)cc(C)c1F, CuI/K2CO3/(1R,2R)-N1,N2-dimethylcyclohexane-1,2-diamine, 1,4-dioxane, 56.0 mM, 16.0 h): 70%

Compound: CCOC(=O)C[C@@H]1NC(=O)C(n2cc(CCN(C)C)c(C(F)(F)F)cc2=O)c2cccc(c2)Oc2cccc(C)c2-c2cc(C)c(F)c1c2 (stereo in doubt)
- ring closure, isolated yield (from CCOC(=O)C[C@H](NC(=O)C(c1cccc(Br)c1)n1cc(CCN(C)C)c(C(F)(F)F)cc1=O)c1cc(-c2c(C)cccc2O)cc(C)c1F, CuI/K2CO3/(1R,2R)-N1,N2-dimethylcyclohexane-1,2-diamine, 1,4-dioxane, 66.7 mM, 16.0 h): 61.3%

Compound: CCOC(=O)C[C@@H]1NC(=O)C(n2cc(CCN(C)C)c(C(F)(F)F)cc2=O)c2cccc(c2)Oc2cccc(C)c2-c2cc1c(F)c(C(F)(F)F)c2 (stereo in doubt)
- ring closure, isolated yield (from CCOC(=O)C[C@H](NC(=O)C(c1cccc(Br)c1)n1cc(CCN(C)C)c(C(F)(F)F)cc1=O)c1cc(-c2c(C)cccc2O)cc(C(F)(F)F)c1F, CuI/(1R,2R)-N1,N2-dimethylcyclohexane-1,2-diamine/K2CO3, dioxane, 68.3 mM, 16.0 h): 55.5%

Compound: CCOC(=O)C[C@@H]1NC(=O)C(n2cc(CCN3CC(F)C3)c(C(F)(F)F)cc2=O)c2cc(cc(C(F)(F)F)c2)Oc2cccc(C)c2-c2cc(C)c(F)c1c2 (stereo in doubt)
- ring closure, isolated yield (from CCOC(=O)C[C@H](NC(=O)C(c1cc(Br)cc(C(F)(F)F)c1)n1cc(CCN2CC(F)C2)c(C(F)(F)F)cc1=O)c1cc(-c2c(C)cccc2O)cc(C)c1F, CuI/K2CO3/(1R,2R)-N1,N2-dimethylcyclohexane-1,2-diamine, dioxane, 90.0 mM, 2.0 h): 69%

Compound: CCOC(=O)C[C@@H]1NC(=O)C(n2cc(CCN3CC(F)C3)c(C(F)(F)F)cc2=O)c2cc(ccc2Cl)Oc2cccc(C)c2-c2cc(C)c(F)c1c2 (stereo in doubt)
- ring closure, isolated yield (from CCOC(=O)C[C@H](NC(=O)C(c1cc(Br)ccc1Cl)n1cc(CCN2CC(F)C2)c(C(F)(F)F)cc1=O)c1cc(-c2c(C)cccc2O)cc(C)c1F, CuI/K2CO3/(1R,2R)-N1,N2-dimethylcyclohexane-1,2-diamine, 1,4-dioxane, 26.7 mM, 16.0 h): 50.3%

Compound: CCOC(=O)C[C@@H]1NC(=O)C(n2cc(CCN3CC(F)C3)c(C(F)(F)F)cc2=O)c2cc(ccc2F)Oc2cc(Cl)cc(C)c2-c2cc(C)c(F)c1c2 (stereo in doubt)
- ring closure, isolated yield (from CCOC(=O)C[C@H](NC(=O)C(c1cc(Br)ccc1F)n1cc(CCN2CC(F)C2)c(C(F)(F)F)cc1=O)c1cc(-c2c(C)cc(Cl)cc2O)cc(C)c1F, CuI/(1R,2R)-N1,N2-dimethylcyclohexane-1,2-diamine/K2CO3, dioxane, 47.0 mM, 16.0 h): 52.5%

Compound: CCOC(=O)C[C@@H]1NC(=O)C(n2cc(CCN3CC(F)C3)c(C(F)(F)F)cc2=O)c2cc(ccc2F)Oc2cc(F)cc(C)c2-c2cc(C)c(F)c1c2 (stereo in doubt)
- ring closure, isolated yield (from CCOC(=O)C[C@H](NC(=O)C(c1cc(Br)ccc1F)n1cc(CCN2CC(F)C2)c(C(F)(F)F)cc1=O)c1cc(-c2c(C)cc(F)cc2O)cc(C)c1F, CuI/K2CO3/(1R,2R)-N1,N2-dimethylcyclohexane-1,2-diamine, dioxane, 30.0 mM, 16.0 h): 48.2%

Compound: CCOC(=O)C[C@@H]1NC(=O)C(n2cc(CCN3CC(F)C3)c(C(F)(F)F)cc2=O)c2cc(ccc2F)Oc2ccc(C)c(C)c2-c2cc(C)c(F)c1c2 (stereo in doubt)
- ring closure, isolated yield (from CCOC(=O)C[C@H](NC(=O)C(c1cc(Br)ccc1F)n1cc(CCN2CC(F)C2)c(C(F)(F)F)cc1=O)c1cc(-c2c(O)ccc(C)c2C)cc(C)c1F, CuI/(1R,2R)-N1,N2-dimethylcyclohexane-1,2-diamine/K2CO3, dioxane, 15.0 mM, 16.0 h): 64.7%

Compound: CCOC(=O)C[C@@H]1NC(=O)C(n2cc(CCN3CC(F)C3)c(C(F)(F)F)cc2=O)c2cc(ccc2F)Oc2ccc(F)c(C)c2-c2cc(C)c(F)c1c2 (stereo in doubt)
- ring closure, isolated yield (from CCOC(=O)C[C@H](NC(=O)C(c1cc(Br)ccc1F)n1cc(CCN2CC(F)C2)c(C(F)(F)F)cc1=O)c1cc(-c2c(O)ccc(F)c2C)cc(C)c1F, CuI/K2CO3/(1R,2R)-N1,N2-dimethylcyclohexane-1,2-diamine, dioxane, 34.0 mM, 16.0 h): 55.2%

Compound: CCOC(=O)C[C@@H]1NC(=O)C(n2cc(CCN3CC(F)C3)c(C(F)(F)F)cc2=O)c2cc(ccc2F)Oc2cccc(C(F)(F)F)c2-c2cc(C)c(F)c1c2 (stereo in doubt)
- ring closure, isolated yield (from CCOC(=O)C[C@H](NC(=O)C(c1cc(Br)ccc1F)n1cc(CCN2CC(F)C2)c(C(F)(F)F)cc1=O)c1cc(-c2c(O)cccc2C(F)(F)F)cc(C)c1F, CuI/K2CO3/N1,N2-dimethylcyclohexane-1,2-diamine, dioxane, 16.7 mM, 16.0 h): 66.7%

Compound: CCOC(=O)C[C@@H]1NC(=O)C(n2cc(CCN3CC(F)C3)c(C(F)(F)F)cc2=O)c2cc(ccc2F)Oc2cccc(C)c2-c2cc(C(F)F)c(F)c1c2 (stereo in doubt)
- ring closure, isolated yield (from CCOC(=O)C[C@H](NC(=O)C(c1cc(Br)ccc1F)n1cc(CCN2CC(F)C2)c(C(F)(F)F)cc1=O)c1cc(-c2c(C)cccc2O)cc(C(F)F)c1F, CuI/(1R,2R)-N1,N2-dimethylcyclohexane-1,2-diamine/K2CO3, 1,4-dioxane, 17.3 mM, 16.0 h): 50.2%

Compound: CCOC(=O)C[C@@H]1NC(=O)C(n2cc(CCN3CC(F)C3)c(C(F)(F)F)cc2=O)c2cc(ccc2F)Oc2cccc(C)c2-c2cc(C3CC3)c(F)c1c2 (stereo in doubt)
- ring closure, isolated yield (from CCOC(=O)C[C@H](NC(=O)C(c1cc(Br)ccc1F)n1cc(CCN2CC(F)C2)c(C(F)(F)F)cc1=O)c1cc(-c2c(C)cccc2O)cc(C2CC2)c1F, CuI/K2CO3/(1R,2R)-N1,N2-dimethylcyclohexane-1,2-diamine, dioxane, 25.0 mM, 16.0 h): 67.3%

Compound: CCOC(=O)C[C@@H]1NC(=O)C(n2cc(CCN3CC(F)C3)c(C(F)(F)F)cc2=O)c2cc(ccc2F)Oc2cccc(C)c2-c2cc(Cl)c(F)c1c2 (stereo in doubt)
- ring closure, isolated yield (from CCOC(=O)C[C@H](NC(=O)C(c1cc(Br)ccc1F)n1cc(CCN2CC(F)C2)c(C(F)(F)F)cc1=O)c1cc(-c2c(C)cccc2O)cc(Cl)c1F, CuI/K2CO3/(1R,2R)-N1,N2-dimethylcyclohexane-1,2-diamine, 1,4-dioxane, 46.7 mM, 16.0 h): 64.9%

Compound: CCOC(=O)C[C@@H]1NC(=O)C(n2cc(CCN3CC(F)C3)c(C(F)(F)F)cc2=O)c2cc(ccc2F)Oc2cccc(C)c2-c2cc(F)c(F)c1c2 (stereo in doubt)
- ring closure, isolated yield (from CCOC(=O)C[C@H](NC(=O)C(c1cc(Br)ccc1F)n1cc(CCN2CC(F)C2)c(C(F)(F)F)cc1=O)c1cc(-c2c(C)cccc2O)cc(F)c1F, CuI/K2CO3/N1,N2-dimethylcyclohexane-1,2-diamine, 1,4-dioxane, 51.7 mM, 16.0 h): 44.4%

Compound: CCOC(=O)C[C@@H]1NC(=O)C(n2cc(CCN3CC(F)C3)c(C(F)(F)F)cc2=O)c2cc(ccc2F)Oc2cccc(Cl)c2-c2cc(C)c(F)c1c2 (stereo in doubt)
- ring closure, isolated yield (from CCOC(=O)C[C@H](NC(=O)C(c1cc(Br)ccc1F)n1cc(CCN2CC(F)C2)c(C(F)(F)F)cc1=O)c1cc(-c2c(O)cccc2Cl)cc(C)c1F, CuI/(1R,2R)-N1,N2-dimethylcyclohexane-1,2-diamine, 1,4-dioxane, 70.0 mM, 16.0 h): 49.7%

Compound: CCOC(=O)C[C@@H]1NC(=O)C(n2cc(CCN3CC(F)C3)c(C(F)(F)F)cc2=O)c2cccc(c2)Oc2cccc(C)c2-c2cc(C)c(F)c1c2 (stereo in doubt)
- ring closure, isolated yield (from CCOC(=O)C[C@H](NC(=O)C(c1cccc(Br)c1)n1cc(CCN2CC(F)C2)c(C(F)(F)F)cc1=O)c1cc(-c2c(C)cccc2O)cc(C)c1F, CuI/K2CO3, dioxane, 42.0 mM, 16.0 h): 33.4%

Compound: CCOC(=O)C[C@@H]1NC(=O)C(n2cc(CCN3CC(F)C3)cc(CC)c2=O)c2cc(ccc2F)Oc2cccc(C)c2-c2cc(C)c(F)c1c2 (stereo in doubt)
- ring closure, isolated yield (from CCOC(=O)C[C@H](NC(=O)C(c1cc(Br)ccc1F)n1cc(CCN2CC(F)C2)cc(CC)c1=O)c1cc(-c2c(C)cccc2O)cc(C)c1F, CuI/(1R,2R)-N,N'-dimethylcyclohexane-1,2-diamine/K2CO3, dioxane, 40.0 mM, 16.0 h): 46.5%

Compound: CCOC(=O)C[C@@H]1NC(=O)C(n2ccc(C(F)(F)F)c(C3CC3)c2=O)c2cc(ccc2F)Oc2cccc(C)c2-c2cc(C)c(F)c1c2 (stereo in doubt)
- ring closure, isolated yield (from CCOC(=O)C[C@H](NC(=O)C(c1cc(Br)ccc1F)n1ccc(C(F)(F)F)c(C2CC2)c1=O)c1cc(-c2c(C)cccc2O)cc(C)c1F, CuI/K2CO3/(1R,2R)-N1,N2-dimethylcyclohexane-1,2-diamine, dioxane, 45.0 mM): 46.7%

Compound: ethyl 2-((5S,8S)-1^4,4^4-difluoro-5-(5-(2-(3-fluoroazetidin-1-yl)ethyl)-2-oxo-4-(trifluoromethyl)pyridin-1(2H)-yl)-2^6-methyl-6-oxo-3-oxa-7-aza-1,4(1,3),2(1,2)-tribenzenacyclooctaphane-8-yl)acetate
- ring closure, isolated yield (CuI/K2CO3/(1R,2R)-N1,N2-dimethylcyclohexane-1,2-diamine, 1,4-dioxane, 52.0 mM): 74.2%
